# Values of other authors as cited in publication PMC3516535, “Rhesus Macaque Theta Defensins Suppress Inflammatory Cytokines and Enhance Survival in Mouse Models of Bacteremic Sepsis” (PLoS ONE, 2012).
# Ends that are not written are not given here.
# Tests used:
# lethal bacteremia = settings: single systemic administration at time of bacterial challenge; cited from earlier work
# From the text: The macrocyclic structure of θ-defensins confers remarkable stability. […] RTD-1 was also well-tolerated when administered intravenously or subcutaneously to mice, rats, and chimpanzees. Following repeated injections, neither of two chimpanzees produced anti-RTD-1 antibody. […] The discovery of antimicrobial peptides and their proven roles in host defense has prompted studies to evaluate dive ...
# CLP sepsis = tested on: CLP sepsis; set-up: method as in PMID 12545019; settings: multiple doses; cited from earlier work
substance,measurement,setting,value
"LL-37: antimicrobial peptide derived from human cells (LLGDFFRKSKEKIGKEFKRIVQRIKDFLRNLVPRTES; Antibacterial peptide LL-37; UniProt P49913 134-170, looked up)",protection against lethal bacteremia,lethal bacteremia,Protection
"PG-1: porcine protegrin (RGGRLCYCRRRFCVCVGR; ends and bridges not checked; cysteine pairing not given here; UniProt P32194 131-148, looked up)",endotoxin-neutralizing effect,CLP sepsis,little endotoxin-neutralizing effect
same,therapeutic effect compared to vehicle control,CLP sepsis,no therapeutic effect
"indolicidin: antimicrobial peptide from ungulates (ILPWKWPWWPWRR; ends and bridges not checked; UniProt P33046 131-143, looked up)",protection against lethal bacteremia,lethal bacteremia,Protection
